Here are results for 27 compounds from patent publication US8685963B2, “Compounds that inhibit NFκB and BACE1 activity” (The Trustees of Columbia University in the city of New York, priority 2008, dated 2014).

As a reminder, the IC50 is the concentration at which inhibition is half-maximal.

“Also recorded” adds a separate entry of the source.

The target in one test is T1, BACE1 (Homo sapiens, UniProt P56817).
T1 construct: GFP; expressed in transfected cells; host or cells: SY5Y cells (SY5Y-BACEGFP-SEAPAPPwt), stably transfected
As to the kind of experiment: cell-based BACE1 assay (sAPPβ modified ELISA) in SY5Y-BACEGFP-SEAPAPPwt cells. To be noted: for IC50: 8-point dose-response (30-0.01 μM). The method, then:
FIG. 8 depicts a sAPPβ assay utilized to identify inhibitors of BACE1. The assay utilizes SY5Y cells stably overexpressing BACE-GFP and SEAP-APPwt. Cells are incubated with a candidate compound for 6 hours prior to harvesting media. BACE1-mediated cleavage of APP results in the release of sAPPβ into the media. α-secretase, a competing enzyme that is non-amyloidogenic, also cleaves APP to release […]. Using an sAPPβ-specific antibody (sβwt), SEAP-sAPPβ is specifically captured in a modified ELISA assay. Detection is achieved by addition of the fluorescent alkaline phosphatase substrate, 4-methylumbelliferyl phosphate (4-MUP).
FIG. 10A-B depicts SAR studies of N-(quinolin-8-yl)benzenesulfonamides. 28 full and partial hits, shown in (A) for compounds 1-26 and (B) for compounds 27 and 28, from the targeted screen of N-(quinolin-8-yl)benzenesulfonamides were characterized in SY5Y-BACEGFP-SEAPAPPwt cells using the cell-based BACE1 assay. All compounds were tested at 8 concentrations (30, 10, 3, 1, 0.3, 0.1, 0.03, and 0.01 μM), and data points were analyzed with Origin software and fitted using a logistic model for IC50 determination.
A cell-based modified ELISA assay for measuring sAPPβ, the secreted ectodomain of β-amyloid precursor protein (APP) following […] (BACE1) cleavage, was used to identify a class of compounds that interfered with the first step of sAPPβ generation. This assay has been described in International Application PCT/US2007/015938 (Published as International Publication No. WO 08/008,463), which is herein incorporated in its entirety for all purposes.
The SY5Y-BACEGFP-SEAPAPPwt cell based assay was developed to discover novel small molecule modulators of BACE1 activity. SY5Y cells were stably transfected with GFP-tagged BACE1 (BACE-GFP) and secreted alkaline phosphatase (SEAP)-tagged wildtype APP (SEAP-APPwt). BACE1 cleavage of SEAP-APPwt results in secretion into the media of SEAP-tagged sAPPβ, which is collected and specifically captured using an sAPPβ cleavage site-specific antibody (sβwt). After washing, the fluorescent alkaline phosphatase substrate 4-methylumbelliferyl phosphate (4-MUP) is used to detect the captured SEAP-sAPPβ (FIG. 8).
176 compounds were tested in the primary screen (FIG. 9). Briefly, each compound (10 mM stock in DMSO) was diluted 1:25 in DMSO and loaded onto 96-well plates to generate a 400 μM stock plate. 1 μl of each compound was then diluted 1:200 with cell culture media (0.5% DMSO concentration) in two separate 96-well plates for a final screening concentration of 2 μM. 150 μl of media containing compound was then transferred onto SY5Y-BACEGFP-SEAPAPPwt cells in 96-well format, and the BACE1 assay was performed as described previously. The primary screen was conducted in duplicate. A parallel screen was conducted at 10 μM concentration, also in duplicate. […] Percent inhibition of the fluorescence signal was calculated as 100×[DMSO control−compound]/DMSO control The majority of data points were clustered between −25% and 25% inhibition of sAPPβ fluorescence signal (FIG. 9A). The Z′ factors for all 4 96-well plates used in the primary screen were above 0.7 (data not shown). The threshold for hit selection was set at 3 standard deviations, or 59.76% inhibition, yielding 6 small molecule hits and a hit rate of 3.41% (FIG. 9B).
28 full and partial hits were characterized in 8-point dose-response experiments for IC50 determination in SY5Y-BACEGFP-SEAPAPPwt cells (FIG. 10).

The subject of the next test is Aβ40. As to the kind of experiment: Aβ40 / sAPPβ levels in Lenti-APPsw infected primary cortical neurons. The test is classed as cell-based, mouse. The method, then:
FIG. 11A-B depicts Lentiviral-mediated transduction of APPsw in primary neurons. Primary cortical neurons were harvested from wild-type P0 mice and cultured according to established protocols. Lentivirus harboring human Swedish mutant APP (Lenti-APPsw) was packaged using ViraPower Lentiviral Packaging mix (Invitrogen) according to the manufacturer's protocol. DIV-14 neurons were incubated for 24 hours with primary culture media containing the indicated volume (in μl) of virus (LV-1 and LV-2 denote 2 separate batches of virus, 0 denotes no virus was used). After infection, neurons were incubated for 72 hours with primary culture media. Media was collected for Aβ40 ELISA (Bio Source), and cell lysates were probed with APPCT antibody to visualize transduced full-length APP. (A) Bar graph depicting results; (B) Assay results.
FIG. 13A-B depicts the effect of CU-264 on Aβ expressing primary cortical neuron cultures from wild-type mice transformed with lentivirus harboring APPsw. […] At 10 μm, CU-264 increased Aβ levels. (A) Bar graph depicting results; (B) Assay results.
The previously described hit was further analyzed in physiologically relevant systems, e.g. primary neurons and Alzheimer's model mice. Two complementary neuronal cell systems were employed to test the effects of candidate compounds on various aspects of APP processing: cultured mouse cortical neurons (postnatal day 0) infected with recombinant lentivirus carrying human APPsw (Lenti-APPsw; FIG. 11); and cultured cortical neurons prepared from Tg2576 mice (carrying human APPsw transgene under the control of the PrP promoter). Lenti-APPsw infected cortical neurons can be prepared in a relatively large scale, but suffer from variability in lentiviral infection efficiency, resulting in variable levels of APP expression. In contrast, cortical neurons derived from Tg2576 provide constant APP expression. However, neuronal yield is generally much lower, since only half the pups will contain the transgene when heterozygote crossbreeds were conducted. Therefore, Initial characterization experiments were performed using cortical neurons infected with Lenti-APPsw.
Lenti-APPsw infected primary cortical neurons were used for the initial round of physiological experiments. Primary cortical neurons were harvested from wild-type P0 pups using established protocols.
The Lenti-APPsw vector was co-transfected into HEK293 T cells with ViraPower packaging mix (Invitrogen) to generate the lentivirus. Lentiviral-mediated transduction of APPsw in primary neurons was performed by adding neuron primary culture media containing the lentiviral particles to wild-type DIV-14 primary neurons (FIG. 11). After 24 hours, neurons were incubated with media for 72 hours prior to collecting for Aβ40 measurement. Two batches of virus (LV-1 and LV-2) were tested, showing that there is batch-to-batch variation in the viral titer.
Using this experimental paradigm, CU-264 was tested at 10 and 2 μM concentrations to examine the sAPPβ- and Aβ-lowering activity of the compound. The protocol was modified slightly to allow for 24-hour compound treatment. DIV-14 wild-type primary neurons (FIG. 12) cultured on 6-well plates were incubated for 24 hours with primary culture media containing lentiviral particles. After infection, fresh media was mixed in a 1:1 ratio with conditioned media collected prior to lentiviral infection, and applied to the cells for 48 hours to allow for APP expression. […]

T1 sequence (P56817 46-501): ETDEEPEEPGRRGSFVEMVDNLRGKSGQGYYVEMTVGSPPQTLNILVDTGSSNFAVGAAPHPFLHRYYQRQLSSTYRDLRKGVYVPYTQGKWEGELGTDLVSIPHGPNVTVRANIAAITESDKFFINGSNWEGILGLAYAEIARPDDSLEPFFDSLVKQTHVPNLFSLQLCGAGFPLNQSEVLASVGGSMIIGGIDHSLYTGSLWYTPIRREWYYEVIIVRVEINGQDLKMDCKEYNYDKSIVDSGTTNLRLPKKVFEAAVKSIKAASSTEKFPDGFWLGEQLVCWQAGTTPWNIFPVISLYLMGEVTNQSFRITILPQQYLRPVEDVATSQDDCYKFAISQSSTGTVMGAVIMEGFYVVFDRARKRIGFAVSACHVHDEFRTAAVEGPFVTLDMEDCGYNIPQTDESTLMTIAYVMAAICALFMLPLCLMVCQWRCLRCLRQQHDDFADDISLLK

In turn, `O=S(=O)(Nc1cccc2cccnc12)c1cccc2ccccc12` [CU-131] came in with an IC50 against BACE1 of 6.46 µM. On BACE1, `O=S(=O)(Nc1cc(Br)cc2cccnc12)c1cccc2ccccc12` [CU-138] gave an IC50 of 9.51 µM. Compound `O=S(=O)(Nc1cccc2cccnc12)c1cccs1` [CU-150] showed an IC50 at BACE1 of 8.03 µM. Regarding `COc1ccc(S(=O)(=O)Nc2cccc3cccnc23)cc1` [CU-151], at BACE1, the IC50 amounted to 5.92 µM. Consider `O=[N+]([O-])c1ccc(S(=O)(=O)Nc2cccc3cccnc23)cc1` [CU-152], for which the IC50 at BACE1 turned out to be 4.63 µM. In turn, `O=[N+]([O-])c1ccccc1S(=O)(=O)Nc1cccc2cccnc12` [CU-153] showed an IC50 against BACE1 of 1.58 µM.

`O=S(=O)(Nc1cccc2cccnc12)c1ccc2ccccc2c1` [CU-155] registered an IC50 at BACE1 of 2.2 µM. Turning to `O=S(=O)(Nc1cccc2cccnc12)c1cccc2cccnc12` [CU-156], the IC50 on BACE1 amounted to 4.23 µM. Compound `O=S(=O)(Nc1cc(Br)cc2cccnc12)c1ccccc1` [CU-166] yielded a half-maximal inhibitory concentration (IC50) on BACE1 of 13.4 µM.

Compound `Cc1ccc(S(=O)(=O)Nc2cc(Br)cc3cccnc23)cc1` [CU-167] registered an IC50 at BACE1 of 1.09 µM.

As for `O=S(=O)(Nc1cc(Br)cc2cccnc12)c1cccc2cccnc12` [CU-168], the concentration for half-maximal inhibition (IC50) at BACE1 is 17.2 µM.

In turn, `Cc1ccc(S(=O)(=O)Nc2cccc3ccc(C)nc23)cc1` [CU-225] had an IC50 at BACE1 of 3.79 µM. On the same count and under the same terms, in the case of `Nc1ccccc1S(=O)(=O)Nc1cccc2cccnc12` [CU-242] it was 3.82 µM. On BACE1, `COc1ccc(S(=O)(=O)Nc2cccc3cccnc23)c([N+](=O)[O-])c1` [CU-261] registered an IC50 of 1.92 µM. Turning to `O=S1(=O)Nc2c(ccc3cccnc23)-c2cc(C(F)(F)F)ccc21` [CU-262], at BACE1, the “potency for sAPPβ reduction (in words)” value was “sub-micromolar” and half-maximal inhibition (IC50) was put at 0.82 µM. As to `Nc1cc(C(F)(F)F)ccc1S(=O)(=O)Nc1cccc2cccnc12` [CU-264], at BACE1, the “potency for sAPPβ reduction (in words)” value is “most potent analog; also recorded: sub-micromolar; also recorded: most potent compound” and the IC50 turned out to be 0.53 µM. For the same compound, in the test on Aβ40, the “Aβ40 levels in more physiological assay” value is “raising” and the “sAPPβ levels in more physiological assay” value is given as “raising”. Further, the “Aβ40 levels in primary neurons” value in the test with Aβ40 (2 μM CU-264, 24-hour treatment) is given as “does not reduce”. For the same compound, the “Aβ levels in primary neurons” value in the test on Aβ40 (10 μM, 24-hour treatment) is listed as “increased”. Further, the “Aβ40 in primary neurons” value in the test with Aβ40 (tested at 10 and 2 μM, 24-hour treatment) is “did not reduce”.

The compound `O=[N+]([O-])c1cc(C(F)(F)F)ccc1S(=O)(=O)Nc1cccc2cccnc12` [CU-265] came in with an IC50 on BACE1 of 2.95 µM. `COc1cc(NS(=O)(=O)c2ccccc2[N+](=O)[O-])c2ncccc2c1` [CU-268] displayed an IC50 against BACE1 of 8.11 µM. `COc1ccc(S(=O)(=O)Nc2cccc3cccnc23)c(N)c1` [CU-271] came in with an IC50 against BACE1 of 2.74 µM. Same read-out and setting: in the case of `Cc1ccc2cccc(NS(=O)(=O)c3ccccc3[N+](=O)[O-])c2n1` [CU-273] it was 12.4 µM.

In the case of `Cc1ccc2cccc(NS(=O)(=O)c3ccccc3N)c2n1` [CU-274], the IC50 against BACE1 came out at 11.1 µM. In the case of `COc1ccc(S(=O)(=O)Nc2cccc3ccc(C)nc23)c(N)c1` [CU-278], the IC50 against BACE1 came to 11.5 µM. `Cc1ccc2cccc(NS(=O)(=O)c3ccc(C(F)(F)F)cc3[N+](=O)[O-])c2n1` [CU-280] registered a half-inhibitory concentration (IC50) at BACE1 of 5.51 µM. Compound `Cc1ccc2cccc(NS(=O)(=O)c3ccc(C(F)(F)F)cc3N)c2n1` [CU-281] gave an IC50 against BACE1 of 3.28 µM. On the same count and under the same terms, in the case of `Cc1ccc2ccc3c(c2n1)NS(=O)(=O)c1ccc(C(F)(F)F)cc1-3` [CU-282] it was 1.11 µM; in that of `COc1cc(NS(=O)(=O)c2ccc3ccccc3c2)c2ncccc2c1` [CU-294], 3.75 µM. Same read-out and setting: under `COc1cc(NS(=O)(=O)c2cccc3ccccc23)c2ncccc2c1` [CU-295] stands 3.63 µM.
